Read-outs that look alike come from different tables or passages of the source.
Assays:
Mino = test: CCK-8 tumor cell proliferation, Mino; type: cell-based, Human; conditions: Table 8, designed based on ER inhibitors; 72 h
Protocol: (§1) The tumor cells used herein were cultured in a cell culture medium listed in table 4 at 37° C. in an incubator with 5% CO2. Prior to experimentation, all cells used were correctly identified by STR profiling, and tested negative for mycoplasma through routine screenings.
(§2) IC50 values of the compounds of the present disclosure (including the compounds in Tables 1 and 3, and compounds of examples) were measured using the Meilun Cell Counting Kit-8 kit from Dalian Meilun Biotech Co., Ltd. Assay details are as follows: tumor cells were seeded in a 96-well plate at a density listed in Table 5. After 24 h, 100 μL of the inoculated cells were treated with 0.5 μL of the compounds of the present disclosure (including the compounds in Tables 1 and 3, and compounds of examples) at 10 different successively decreasing concentrations (starting at the highest concentration of 10 μM; 5-fold serial dilutions). After the cells were treated with the compounds of the present disclosure for a period of time, the cell viability detection reagent was added to the culture medium for cell viability assessment according to the instructions provided with the CCK-8 kit. […] The growth inhibition of the compounds of the present disclosure on cells was plotted by Prism Graphpad software, and the IC50 values of the compounds of the present disclosure were calculated therefrom.

CCRF-CEM = test: CCK-8 tumor cell proliferation, CCRF-CEM; type: cell-based, Human; parameters: IC50 for inhibiting the proliferation of tumor cells, CCRF-CEM: scale not given here
Summary of the method: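 IC50 derived from CCK-8 cell viability after compound treatment. Dilution series: 10 concentrations, 5-fold apart, from 10 μM. Compound added 24 h post-seeding; culture at 37 °C in 5% CO2.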

Kasumi-1 = test: CCK-8 tumor cell proliferation, Kasumi-1; type: cell-based, Human; conditions: Table 8, designed based on ER inhibitors; 72 h
Protocol: as §1, §2

MV-4-11 = test: CCK-8 tumor cell proliferation, MV-4-11; type: cell-based, Human; conditions: Homo sapiens, MV4-11; Table 19, IRAK4 inhibitor based; MV-4-11; read-out: IC50 inhibiting proliferation of tumor cells, MV-4-11
Protocol: as §1, §2

Jurkat = test: CCK-8 tumor cell proliferation, Jurkat; type: cell-based, Human; conditions: Homo sapiens
Protocol: as §1, §2

CAL-62 = test: CCK-8 tumor cell proliferation, CAL-62; type: cell-based, Human; conditions: Homo sapiens, CAL-62
Protocol: as §1, §2

MM.1R = test: CCK-8 tumor cell proliferation, MM.1R; type: cell-based
Protocol: as §1, §2

[1] = Table 23, compared to Comparative Example compounds, read-out: Inhibitory activity (IC50, nM) against tumor cell proliferation, Jurkat
[2] = Table 23, compared to Comparative Example compounds, read-out: Inhibitory activity (IC50, nM) against tumor cell proliferation, CAL-62
[3] = Table 23, compared to Comparative Example compounds, read-out: Inhibitory activity (IC50, nM) against tumor cell proliferation, MM.1R
[4] = Table 19, IRAK4 inhibitor based, read-out: IC50 inhibiting proliferation of tumor cells, Jurkat
[5] = Table 19, IRAK4 inhibitor based, read-out: IC50 inhibiting proliferation of tumor cells, CAL-62
[6] = Table 19, IRAK4 inhibitor based, read-out: IC50 inhibiting proliferation of tumor cells, MM.1R

With `O=C1CCC(N2Cc3cc(CN4CCN(c5ccc(C(=C(CCCl)c6ccccc6)c6ccccc6)cc5)CC4)ccc3C2=O)C(=O)N1` (stereo not drawn) [GT-03637, 3-(5-((4-(4-(4-chloro-1,2-diphenylbut-1-en-1-yl)phenyl)piperazin-1-yl)methyl)-1-oxoisoindolin-2-yl)piperidine-2,6-dione] the “IC50 for inhibiting the proliferation of tumor cells, Mino” value (Mino) was “A+”, the “IC50 for inhibiting the proliferation of tumor cells, CCRF-CEM” value (CCRF-CEM; Table 8, designed based on ER inhibitors, 96 h) was “A+” and the “IC50 for inhibiting the proliferation of tumor cells, Kasumi-1” value (Kasumi-1) was “A+”.
Compound `Cc1cc(-c2nc(C(=O)Nc3cc4oc(N5CCN(Cc6ccc7c(c6F)CN(C6CCC(=O)NC6=O)C7=O)CC5)nc4nc3N3CC[C@@H](O)C3)co2)ccn1` (stereo partly drawn) [GT-03841, N-(2-(4-((2-(2,6-dioxopiperidin-3-yl)-4-fluoro-1-oxoisoindolin-5-yl)methyl)piperazin-1-yl)-5-((R)-3-hydroxypyrrolidin-1-yl)oxazolo[4,5-b]pyridin-6-yl)-2-(2-methylpyridin-4-yl)oxazole-4-carboxamide] has an IC50 (MV-4-11) of 100 to 500 nM.
`Cc1cc(-c2nc(C(=O)Nc3cc4oc(N5CCN(Cc6cc7c(cc6F)C(=O)N(C6CCC(=O)NC6=O)C7)CC5)nc4nc3N3CC[C@@H](O)C3)co2)ccn1` (stereo partly drawn) [GT-03842, N-(2-(4-((2-(2,6-dioxopiperidin-3-yl)-6-fluoro-1-oxoisoindolin-5-yl)methyl)piperazin-1-yl)-5-((R)-3-hydroxypyrrolidin-1-yl)oxazolo[4,5-b]pyridin-6-yl)-2-(2-methylpyridin-4-yl)oxazole-4-carboxamide] showed an IC50 (MV-4-11) of 100 to 500 nM.
For `Cc1cc(-c2nc(C(=O)Nc3cc4oc(N5CCN(Cc6cc(F)c7c(c6)CN(C6CCC(=O)NC6=O)C7=O)CC5)nc4nc3N3CC[C@@H](O)C3)co2)ccn1` (stereo partly drawn) [GT-03843, N-(2-(4-((2-(2,6-dioxopiperidin-3-yl)-7-fluoro-1-oxoisoindolin-5-yl)methyl)piperazin-1-yl)-5-((R)-3-hydroxypyrrolidin-1-yl)oxazolo[4,5-b]pyridin-6-yl)-2-(2-methylpyridin-4-yl)oxazole-4-carboxamide], the IC50 (MV-4-11) was 50 to 100 nM and the IC50 (CCRF-CEM; Homo sapiens, Table 19, IRAK4 inhibitor based, CCRF-CEM, read-out: IC50 inhibiting proliferation of tumor cells, CCRF-CEM) was < 50 nM.
`Cc1cc(-c2nc(C(=O)Nc3cc4oc(N5CCN(Cc6cccc7c6CN(C6CCC(=O)NC6=O)C7=O)CC5)nc4nc3N3CC[C@@H](O)C3)co2)ccn1` (stereo partly drawn) [GT-03844, N-(2-(4-((2-(2,6-dioxopiperidin-3-yl)-1-oxoisoindolin-4-yl)methyl)piperazin-1-yl)-5-((R)-3-hydroxypyrrolidin-1-yl)oxazolo[4,5-b]pyridin-6-yl)-2-(2-methylpyridin-4-yl)oxazole-4-carboxamide] was tested, and the IC50 (MV-4-11) was 100 to 500 nM.
Work on `Cc1cc(-c2nc(C(=O)Nc3cc4oc(N5CCN(Cc6ccc7c(c6)C(=O)N(C6CCC(=O)NC6=O)C7=O)CC5)nc4nc3N3CC[C@@H](O)C3)co2)ccn1` (stereo partly drawn) [GT-03845, N-(2-(4-((2-(2,6-dioxopiperidin-3-yl)-1,3-dioxoisoindolin-5-yl)methyl)piperazin-1-yl)-5-((R)-3-hydroxypyrrolidin-1-yl)oxazolo[4,5-b]pyridin-6-yl)-2-(2-methylpyridin-4-yl)oxazole-4-carboxamide] yielded an IC50 (MV-4-11) of 500 to 1000 nM.
`CCc1cc2c(cc1N1CCC(N3CCN(CCCc4ccc5c(c4)CN(C4CCC(=O)NC4=O)C5=O)CC3)CC1)C(C)(C)c1[nH]c3cc(C#N)ccc3c1C2=O` (stereo not drawn) [GT-04457, 8-(4-(4-(3-(2-(2,6-dioxopiperidin-3-yl)-1-oxoisoindolin-5-yl)propyl)piperazin-1-yl)piperidin-1-yl)-9-ethyl-6,6-dimethyl-11-oxo-6,11-dihydro-5H-benzo[b]carbazole-3-carbonitrile] was tested, and the IC50 (Jurkat; [1]) was 100 to 500 nM, the IC50 (CAL-62; [2]) was 5000 to 10000 nM and the IC50 (MM.1R; [3]) was 5000 to 10000 nM.
`CCc1cc2c(cc1N1CCC(N3CCN(CCc4ccc5c(c4)CN(C4CCC(=O)NC4=O)C5=O)CC3)CC1)C(C)(C)c1[nH]c3cc(C#N)ccc3c1C2=O` (stereo not drawn) [GT-04512, 8-(4-(4-(2-(2-(2,6-dioxopiperidin-3-yl)-1-oxoisoindolin-5-yl)ethyl)piperazin-1-yl)piperidin-1-yl)-9-ethyl-6,6-dimethyl-11-oxo-6,11-dihydro-5H-benzo[b]carbazole-3-carbonitrile] showed an IC50 (Jurkat; [1]) of 100 to 500 nM, an IC50 (CAL-62; [2]) of 1000 to 5000 nM and an IC50 (MM.1R; [3]) of 1000 to 5000 nM.
`COc1cc(N2CCC(N(C)CCc3ccc4c(c3)CN(C3CCC(=O)NC3=O)C4=O)CC2)ccc1Nc1ncc(Cl)c(Nc2ccccc2P(C)(C)=O)n1` (stereo not drawn) [GT-04513, 3-(5-(2-((1-(4-((5-chloro-4-((2-(dimethylphosphoryl)phenyl)amino)pyrimidin-2-yl)amino)-3-methoxyphenyl)piperidin-4-yl)(methyl)amino)ethyl)-1-oxoisoindolin-2-yl)piperidine-2,6-dione] showed an IC50 (Jurkat; [1]) of 1000 to 5000 nM, an IC50 (CAL-62; [2]) of 1000 to 5000 nM and an IC50 (MM.1R; [3]) of 100 to 500 nM.
`CC(C)(O)c1cc2nc(C3CCN(Cc4ccc5c(c4F)CN(C4CCC(=O)NC4=O)C5=O)CC3)oc2cc1NC(=O)c1cccc(C(F)(F)F)n1` (stereo not drawn) [GT-04518, N-(2-(1-((2-(2,6-dioxopiperidin-3-yl)-4-fluoro-1-oxoisoindolin-5-yl)methyl)piperidin-4-yl)-5-(2-hydroxypropan-2-yl)benzo[d]oxazol-6-yl)-6-(trifluoromethyl)picolinamide] was tested, and the IC50 (Jurkat; [4]) was < 50 nM, the IC50 (CAL-62; [5]) was 100 to 500 nM and the IC50 (MM.1R; [6]) was 50 to 100 nM.
With `CC(C)(O)c1cc2nc(C3CCN(Cc4cc5c(cc4F)C(=O)N(C4CCC(=O)NC4=O)C5)CC3)oc2cc1NC(=O)c1cccc(C(F)(F)F)n1` (stereo not drawn) [GT-04519, N-(2-(1-((2-(2,6-dioxopiperidin-3-yl)-6-fluoro-1-oxoisoindolin-5-yl)methyl)piperidin-4-yl)-5-(2-hydroxypropan-2-yl)benzo[d]oxazol-6-yl)-6-(trifluoromethyl)picolinamide] the IC50 (Jurkat; [4]) was < 50 nM, the IC50 (CAL-62; [5]) was < 50 nM and the IC50 (MM.1R; [6]) was < 50 nM.
For `O=C1CCC(N2Cc3cc(CCN4CCN(c5ccc([C@@H]6c7ccc(O)cc7CC[C@@H]6c6ccccc6)cc5)CC4)ccc3C2=O)C(=O)N1` (stereo partly drawn) [GT-04562, 3-(5-(2-(4-(4-((1R,2S)-6-hydroxy-2-phenyl-1,2,3,4-tetrahydronaphthalen-1-yl)phenyl)piperazin-1-yl)ethyl)-1-oxoisoindolin-2-yl)piperidine-2,6-dione], the IC50 (Jurkat; [1]) was 100 to 500 nM, the IC50 (CAL-62; [2]) was 1000 to 5000 nM and the IC50 (MM.1R; [3]) was 5000 to 10000 nM.
For `Nc1ncnc2c1c(-c1ccc(Oc3ccccc3)cc1)nn2C1CCN(CCc2ccc3c(c2)CN(C2CCC(=O)NC2=O)C3=O)CC1` (stereo not drawn) [GT-04563, 3-(5-(2-(4-(4-amino-3-(4-phenoxyphenyl)-1H-pyrazolo[3,4-d]pyrimidin-1-yl)piperidin-1-yl)ethyl)-1-oxoisoindolin-2-yl)piperidine-2,6-dione], the IC50 (Jurkat; [1]) was 1000 to 5000 nM, the IC50 (CAL-62; [2]) was 5000 to 10000 nM and the IC50 (MM.1R; [3]) was < 50 nM.
Work on `O=C1CCC(N2Cc3cc(CCCN4CCN(c5ccc([C@@H]6c7ccc(O)cc7CC[C@@H]6c6ccccc6)cc5)CC4)ccc3C2=O)C(=O)N1` (stereo partly drawn) [GT-04564, 3-(5-(3-(4-(4-((1R,2S)-6-hydroxy-2-phenyl-1,2,3,4-tetrahydronaphthalen-1-yl)phenyl)piperazin-1-yl)propyl)-1-oxoisoindolin-2-yl)piperidine-2,6-dione] yielded an IC50 (Jurkat; [1]) of 100 to 500 nM, an IC50 (CAL-62; [2]) of 1000 to 5000 nM and an IC50 (MM.1R; [3]) of 1000 to 5000 nM.
For `Nc1ncnc2c1c(-c1ccc(Oc3ccccc3)cc1)nn2C1CCN(CCCc2ccc3c(c2)CN(C2CCC(=O)NC2=O)C3=O)CC1` (stereo not drawn) [GT-04565, 3-(5-(3-(4-(4-amino-3-(4-phenoxyphenyl)-1H-pyrazolo[3,4-d]pyrimidin-1-yl)piperidin-1-yl)propyl)-1-oxoisoindolin-2-yl)piperidine-2,6-dione], the IC50 (Jurkat; [1]) was 5000 to 10000 nM, the IC50 (CAL-62; Table 23, given as number, read-out: Inhibitory activity (IC50, nM) against tumor cell proliferation, CAL-62) was > 10000 nM and the IC50 (MM.1R; Table 23, given as number, read-out: Inhibitory activity (IC50, nM) against tumor cell proliferation, MM.1R) was > 10000 nM.

Source: patent US20260199323A1, “LIGAND COMPOUNDS FOR E3 UBIQUITIN LIGASE, PROTEIN DEGRADERS DEVELOPED ON BASIS OF LIGAND COMPOUNDS, AND USES THEREOF” (GLUETACS THERAPEUTICS (SHANGHAI) CO., LTD., priority 2021, published 2026)
